Measured values as given in patent US6406709B1, “Method for inhibiting nematocyst discharge” (Nidaria Technology Ltd., priority 1997, dated 2002).

Legend:
[1] = tested on: isolated nematocyst capsules; settings: 50 mM CaCl2; cited from earlier work
[2] = tested on: Pelagia noctiluca nematocysts; assay: Nematocyst discharge into human skin slides, Monterey Bay Aquarium; settings: glycerol plus 0.2% diphenhydramine, exposure 10 to 15 seconds
Procedure: (§1) Normal human skin (HS) was obtained from neonatal elective circumcision. The skin was immediately placed into sterile phosphate buffered saline (PBS) containing antibiotic/antimycotic. The tissue was frozen embedded in Tissue-Tek™. The tissue was then sectioned into 50 μm sections using a cryostat. The sections were attached to glass slides coated with polylysine and maintained at −70° C. until time of use. All sections were examined to ensure that they were perpendicular to the plane of the epidermis, exposing cross-sections of epidermis, dermis and sub-cutaneous tissue.
(§2) The slides prepared and frozen as described above were thawed at room temperature. The slides were submersed in sea water for approximately 10 seconds and then attached to jellyfish or sea anemones tentacles for approximately 10 seconds. The tentacles were detached, the slides washed two times with PBS, and blocked using 5% Fetal Bovine serum (FBS), and 0.1% Triton X100 in PBS (blocking solution). All washing and incubation steps were conducted on a tilting shaker at room temperature. The slides were incubated in 10 mL of blocking solution containing a 1:2,500 dilution of the anti-toxin antibody for one hour. After incubation, the slides were washed five times for five minutes each wash with 100 mL of 0.1% TritonX100 in PBS (Wash solution). […]

Auzelia nematocysts = assay: Nematocyst discharge into human skin slides; settings: N=3 test, 3 each control; control discharged less than 100
Procedure: as §1, §2

[3] = tested on: nematocysts of jellyfish or sea anemone tentacles; assay: Artemia adhesion/paralysis test of nematocyst discharge by tentacle fragments in sea water; type: cell-based
Procedure: To initially test inhibition of nematocyst discharge, the following test was performed. It is typical behavior for jellyfish or sea anemone tentacles to adhere to and paralyze newly hatched nauplii of Artemia sp. The adhesion and subsequent paralysis is characteristic of nematocyst discharge by the tentacles. Small 2 to 3 mm fragments of jellyfish or sea anemone tentacles were prepared and placed in a 12-well plate containing filtered sea water. The tentacle fragments were washed by changing the filtered sea water three times. One mL of filtered sea water was left in each well after the final wash. […] The 6 wells without the antihistamine served as controls. Ten Artemia sp. were added to each well in a total volume of between 50 and 100 uL of filtered sea water. After 2 minutes, the number of attached or paralyzed Artemia in each well was measured.

[4] = tested on: Chrysaora quinquecirrha nematocysts; assay: Nematocyst discharge into human skin slides, Monterey Bay Aquarium; settings: glycerol plus 0.2% diphenhydramine, exposure 10 to 15 seconds
Procedure: as §1, §2

For `[Ca+2].[Cl-].[Cl-]` [CaCl2], the “discharge of isolated nematocyst capsules” value [1] is given as “do not discharge”.

For `CN(C)CCOC(c1ccccc1)c1ccccc1.Cl` [diphenhydramine, diphenhydramine hydrochloride], the “reduction in nematocyst discharged” value [2] was “significant reduction”, the “decrease in nematocyst discharge” value (Auzelia nematocysts) was “ten-fold decrease” and the “effect on the number of Artemia paralyzed by nematocysts” value ([3]; 0.02% in sea water, versus sea water alone) was “significantly decreased”. For the same compound, the “Artemia paralyzed by nematocysts, all wells together” value ([3]; out of 64 Artemia, 50 of 64 without antihistamine) was 11 and the “decrease of nematocyst discharge” value [4] was 2.5-5 fold.
